# From publication PMC7593776 (RSC Medicinal Chemistry, 2020)
# Target: ERK2 (Homo sapiens, UniProt P28482)
# Assay: Z′-LYTE kinase inhibition assay
# Type: biochemical
# Details: ATP concentration 100 μM
# Chain of ERK2 (P28482 whole entry): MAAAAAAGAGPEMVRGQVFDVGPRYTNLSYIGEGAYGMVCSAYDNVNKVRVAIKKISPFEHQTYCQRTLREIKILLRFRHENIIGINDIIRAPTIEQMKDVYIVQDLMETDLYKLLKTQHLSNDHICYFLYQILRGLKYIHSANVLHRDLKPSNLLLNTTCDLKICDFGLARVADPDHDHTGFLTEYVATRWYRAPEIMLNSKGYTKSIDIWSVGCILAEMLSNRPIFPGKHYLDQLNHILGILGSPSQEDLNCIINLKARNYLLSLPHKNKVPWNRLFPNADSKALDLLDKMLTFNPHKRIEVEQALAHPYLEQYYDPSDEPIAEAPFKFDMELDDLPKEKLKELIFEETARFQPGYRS
compound,measurement,value
Nc1cccc2cc[nH]c(=O)c12 [MR1],inhibition (in words),not inhibited
